In US9662323B2, “Compounds having muscarinic receptor antagonist and beta2 adrenergic receptor agonist activity” (CHIESI FARMACEUTICI S.p.A., priority 2015, dated 2017):

Columns and labels:
Human β2 adrenoceptor = target: T1, Human β2 adrenoceptor (Homo sapiens, UniProt P07550); test: β2 Adrenoceptor Radioligand Binding Assay; conditions: human β2 adrenoceptor membranes, 125-I Cyanopindolol; read-out: B2 binding affinity (Ki class)
T1 construct: purchased Perkin Elmer
Procedure: β2 Adrenoceptor Radioligand Binding Assay
The assay was carried out in 96-well polypropylene plates in a volume of 200 ul. The assay buffer used was 25 mM HEPES, 0.5% BSA (w/v), 1 mM EDTA, 0.02% ascorbic acid (v/v), (pH 7.4). The final assay concentration of DMSO was 0.5% (v/v). The plates were sealed and incubated for 1 h at room temperature on an orbital shaker (slow speed). Membranes were harvested onto 96-well unifilter GF/C filter plates pre-treated with 0.5% polyethyleneimine (v/v), using a filter manifold, washed six times with 200 ul of wash buffer containing 10 mM HEPES and 500 mM NaCl. The plates were dried before addition of 50 μl of microscint-0, sealed then read in a Trilux Microbeta scintillation counter. IC50 values are determined from competition curves using a non-linear curve fitting program. Ki values were calculated from IC50 values by the Cheng and Prusoff equation.

Human M3 receptor = target: T2, Human M3 receptor (Homo sapiens, UniProt P20309); test: M3 Receptor Radioligand Binding Assay; conditions: human M3 receptor membranes, [3H]-N-methyl scopolamine; read-out: M3 binding affinity (Ki class)
T2 construct: purchased Perkin Elmer
T2 sequence (P20309 whole entry): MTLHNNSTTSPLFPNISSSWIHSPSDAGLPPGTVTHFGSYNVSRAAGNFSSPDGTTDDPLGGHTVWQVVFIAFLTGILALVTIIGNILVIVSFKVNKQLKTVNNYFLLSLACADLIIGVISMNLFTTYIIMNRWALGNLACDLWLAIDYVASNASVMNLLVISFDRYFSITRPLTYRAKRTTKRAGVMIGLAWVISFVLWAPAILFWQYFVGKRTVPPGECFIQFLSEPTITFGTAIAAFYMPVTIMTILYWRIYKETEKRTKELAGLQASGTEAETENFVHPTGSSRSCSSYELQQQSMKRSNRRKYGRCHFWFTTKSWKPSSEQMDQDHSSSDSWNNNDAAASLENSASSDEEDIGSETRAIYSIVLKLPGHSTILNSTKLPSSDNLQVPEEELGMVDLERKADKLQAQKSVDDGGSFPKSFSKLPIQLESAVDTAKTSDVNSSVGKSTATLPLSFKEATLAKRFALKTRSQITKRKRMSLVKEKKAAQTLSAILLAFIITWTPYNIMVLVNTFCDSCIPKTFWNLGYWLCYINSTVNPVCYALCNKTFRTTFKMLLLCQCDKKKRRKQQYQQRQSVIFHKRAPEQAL
Procedure: Biological Characterization M3 Receptor Radioligand Binding Assay
The assay was carried out in 96-well polypropylene plates in a volume of 250 ul. […] The final assay concentration of DMSO was 0.5% (v/v). The plates were sealed and incubated for 2 h at room temperature on an orbital shaker (slow speed). Membranes were harvested onto 96-well unifilter GF/C filter plates pre-treated with 0.5% polyethyleneimine (v/v), using a filter manifold, washed four times with 200 ul of assay buffer. The plates were dried before addition of 50 μl of microscint-0, sealed then read in a Trilux Microbeta scintillation counter.

T1 sequence (P07550 whole entry): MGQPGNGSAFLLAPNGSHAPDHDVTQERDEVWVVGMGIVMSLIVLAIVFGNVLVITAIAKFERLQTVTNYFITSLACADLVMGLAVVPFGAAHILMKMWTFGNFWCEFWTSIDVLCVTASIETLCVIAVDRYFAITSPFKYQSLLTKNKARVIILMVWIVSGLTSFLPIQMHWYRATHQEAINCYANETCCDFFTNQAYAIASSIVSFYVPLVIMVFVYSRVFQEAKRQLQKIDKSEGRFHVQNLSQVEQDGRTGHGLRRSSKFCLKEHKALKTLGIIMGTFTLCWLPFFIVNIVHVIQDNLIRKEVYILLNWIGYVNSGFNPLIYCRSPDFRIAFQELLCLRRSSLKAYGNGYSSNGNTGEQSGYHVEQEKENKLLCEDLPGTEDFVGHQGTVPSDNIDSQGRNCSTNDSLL

Row | Compound | Ki (Human β2 adrenoceptor) | Ki (Human M3 receptor)
1 | O=C(NCCCCNC[C@H](O)c1ccc(O)c2[nH]c(=O)ccc12)c1ccc(C(=O)N2CC(C(=O)O[C@H]3CN4CCC3CC4)(c3ccccc3)C2)cc1 [Compound 10A, (R)-Quinuclidin-3-yl 1-(4-((4-(((R)-2-hydroxy-2-(8-hydroxy-2-oxo-1,2-dihydroquinolin-5-yl)ethyl)amino)butyl)carbamoyl)benzoyl)-3-phenylazetidine-3-carboxylate] | < 1 nM | 1 to 10 nM
2 | O=C(Cc1cccc(OCCCCCNC[C@H](O)c2ccc(O)c3[nH]c(=O)ccc23)c1)N1CCC(C(=O)O[C@H]2CN3CCC2CC3)(c2ccccc2)CC1 [Compound 11, (R)-Quinuclidin-3-yl 1-(2-(3-((5-(((R)-2-hydroxy-2-(8-hydroxy-2-oxo-1,2-dihydroquinolin-5-yl)ethyl)amino)pentyl)oxy)phenyl)acetyl)-4-phenylpiperidine-4-carboxylate] | < 1 nM | 1 to 10 nM
3 | O=C(NCCCCNC[C@H](O)c1ccc(O)c2[nH]c(=O)ccc12)c1ccc(C(=O)N2CC(C(=O)O[C@H]3CN4CCC3CC4)(c3ccccc3)C2)s1 [Compound 11A, (R)-Quinuclidin-3-yl 1-(5-((4-(((R)-2-hydroxy-2-(8-hydroxy-2-oxo-1,2-dihydroquinolin-5-yl)ethyl)amino)butyl)carbamoyl)thiophene-2-carbonyl)-3-phenylazetidine-3-carboxylate] | < 1 nM | 1 to 10 nM
4 | Cc1cc(CC(=O)N2CCC(C(=O)O[C@H]3CN4CCC3CC4)(c3ccccc3)CC2)ccc1OCCCCCNC[C@H](O)c1ccc(O)c2[nH]c(=O)ccc12 [Compound 12, (R)-Quinuclidin-3-yl 1-(2-(4-((5-(((R)-2-hydroxy-2-(8-hydroxy-2-oxo-1,2-dihydroquinolin-5-yl)ethyl)amino)pentyl)oxy)-3-methylphenyl)acetyl)-4-phenylpiperidine-4-carboxylate] | > 10 nM | 1 to 10 nM
5 | CCN(CCCNC[C@H](O)c1ccc(O)c2[nH]c(=O)ccc12)C(=O)c1ccc(CCC(=O)N2CC(C(=O)O[C@H]3CN4CCC3CC4)(c3ccccc3)C2)cc1 [Compound 12A, (R)-Quinuclidin-3-yl 1-(3-(4-(ethyl(3-(((R)-2-hydroxy-2-(8-hydroxy-2-oxo-1,2-dihydroquinolin-5-yl)ethyl)amino)propyl)carbamoyl)phenyl)propanoyl)-3-phenylazetidine-3-carboxylate] | 1 to 10 nM | 1 to 10 nM
6 | O=C(Cc1ccc(OCCCCCNC[C@H](O)c2ccc(O)c3[nH]c(=O)ccc23)c(F)c1)N1CCC(C(=O)O[C@H]2CN3CCC2CC3)(c2ccccc2)CC1 [Compound 13, (R)-Quinuclidin-3-yl 1-(2-(3-fluoro-4-((5-(((R)-2-hydroxy-2-(8-hydroxy-2-oxo-1,2-dihydroquinolin-5-yl)ethyl)amino)pentyl)oxy)phenyl)acetyl)-4-phenylpiperidine-4-carboxylate] | > 10 nM | < 1 nM
7 | O=C(CCc1ccc(OCc2ccc(CNC[C@H](O)c3ccc(O)c4[nH]c(=O)ccc34)cc2)cc1)N1CC(C(=O)O[C@H]2CN3CCC2CC3)(c2ccccc2)C1 [Compound 13A, (R)-Quinuclidin-3-yl 1-(3-(4-((4-((((R)-2-hydroxy-2-(8-hydroxy-2-oxo-1,2-dihydroquinolin-5-yl)ethyl)amino)methyl)benzyl)oxy)phenyl)propanoyl)-3-phenylazetidine-3-carboxylate] | 1 to 10 nM | 1 to 10 nM
8 | O=C(Cc1ccc(OCCCCCNC[C@H](O)c2ccc(O)c3[nH]c(=O)ccc23)c(-c2ccsc2)c1)N1CCC(C(=O)O[C@H]2CN3CCC2CC3)(c2ccccc2)CC1 [Compound 14, (R)-Quinuclidin-3-yl 1-(2-(4-((5-(((R)-2-hydroxy-2-(8-hydroxy-2-oxo-1,2-dihydroquinolin-5-yl)ethyl)amino)pentyl)oxy)-3-(thiophen-3-yl)phenyl)acetyl)-4-phenylpiperidine-4-carboxylate] | < 1 nM | 1 to 10 nM
9 | O=C(Cc1ccc(CC(=O)N2CC(C(=O)O[C@H]3CN4CCC3CC4)(c3ccccc3)C2)cc1)N(CCCNC[C@H](O)c1ccc(O)c2[nH]c(=O)ccc12)Cc1ccccc1 [Compound 14A, (R)-Quinuclidin-3-yl 1-(2-(4-(2-(benzyl(3-(((R)-2-hydroxy-2-(8-hydroxy-2-oxo-1,2-dihydroquinolin-5-yl)ethyl)amino)propyl)amino)-2-oxoethyl)phenyl)acetyl)-3-phenylazetidine-3-carboxylate] | < 1 nM | < 1 nM
10 | O=C(Cc1ccc(OCCCCCNC[C@H](O)c2ccc(O)c3[nH]c(=O)ccc23)c(-c2ccccc2)c1)N1CCC(C(=O)O[C@H]2CN3CCC2CC3)(c2ccccc2)CC1 [Compound 15, (R)-Quinuclidin-3-yl 1-(2-(6-((5-(((R)-2-hydroxy-2-(8-hydroxy-2-oxo-1,2-dihydroquinolin-5-yl)ethyl)amino)pentyl)oxy)-[1,1′-biphenyl]-3-yl)acetyl)-4-phenylpiperidine-4-carboxylate] | < 1 nM | > 10 nM
11 | O=C(Cc1ccc(OCc2ccc(CNC[C@H](O)c3ccc(O)c4[nH]c(=O)ccc34)cc2)cc1)N1CC(C(=O)O[C@H]2CN3CCC2CC3)(c2ccccc2)C1 [Compound 15A, (R)-Quinuclidin-3-yl 1-(2-(4-((4-((((R)-2-hydroxy-2-(8-hydroxy-2-oxo-1,2-dihydroquinolin-5-yl)ethyl)amino)methyl)benzyl)oxy)phenyl)acetyl)-3-phenylazetidine-3-carboxylate] | < 1 nM | < 1 nM
12 | O=C(CCc1ccc(OCCCCCNC[C@H](O)c2ccc(O)c3[nH]c(=O)ccc23)c(-c2ccccc2)c1)N1CCC(C(=O)O[C@H]2CN3CCC2CC3)(c2ccccc2)CC1 [Compound 16, (R)-Quinuclidin-3-yl 1-(3-(6-((5-(((R)-2-hydroxy-2-(8-hydroxy-2-oxo-1,2-dihydroquinolin-5-yl)ethyl)amino)pentyl)oxy)-[1,1′-biphenyl]-3-yl)propanoyl)-4-phenylpiperidine-4-carboxylate] | < 1 nM | 1 to 10 nM
13 | O=C(NCc1ccc(CCNC[C@H](O)c2ccc(O)c3[nH]c(=O)ccc23)cc1)c1ccc(C(=O)N2CC(C(=O)O[C@H]3CN4CCC3CC4)(c3ccccc3)C2)cc1 [Compound 16A, (R)-Quinuclidin-3-yl 1-(4-((4-(2-(((R)-2-hydroxy-2-(8-hydroxy-2-oxo-1,2-dihydroquinolin-5-yl)ethyl)amino)ethyl)benzyl)carbamoyl)benzoyl)-3-phenylazetidine-3-carboxylate] | < 1 nM | < 1 nM
14 | Cc1cc(CCC(=O)N2CCC(C(=O)O[C@H]3CN4CCC3CC4)(c3ccccc3)CC2)ccc1OCCCCCNC[C@H](O)c1ccc(O)c2[nH]c(=O)ccc12 [Compound 17, (R)-Quinuclidin-3-yl 1-(3-(4-((5-(((R)-2-hydroxy-2-(8-hydroxy-2-oxo-1,2-dihydroquinolin-5-yl)ethyl)amino)pentyl)oxy)-3-methylphenyl)propanoyl)-4-phenylpiperidine-4-carboxylate] | < 1 nM | < 1 nM
15 | O=C(NCc1ccc(C(=O)N2CC(C(=O)O[C@H]3CN4CCC3CC4)(c3ccccc3)C2)cc1)c1ccc(CNC[C@H](O)c2ccc(O)c3[nH]c(=O)ccc23)cc1 [Compound 17A, (R)-Quinuclidin-3-yl 1-(4-((4-((((R)-2-hydroxy-2-(8-hydroxy-2-oxo-1,2-dihydroquinolin-5-yl)ethyl)amino)methyl)benzamido)methyl)benzoyl)-3-phenylazetidine-3-carboxylate] | < 1 nM | < 1 nM
16 | Cc1cc(/C=C/C(=O)N2CCC(C(=O)O[C@H]3CN4CCC3CC4)(c3ccccc3)CC2)ccc1OCCCCCNC[C@H](O)c1ccc(O)c2[nH]c(=O)ccc12 [Compound 18, (R)-Quinuclidin-3-yl 1-((E)-3-(4-((5-(((R)-2-hydroxy-2-(8-hydroxy-2-oxo-1,2-dihydroquinolin-5-yl)ethyl)amino)pentyl)oxy)-3-methylphenyl)acryloyl)-4-phenylpiperidine-4-carboxylate] | < 1 nM | < 1 nM
17 | O=C(c1ccc(OCCCCNC[C@H](O)c2ccc(O)c3[nH]c(=O)ccc23)cc1)N1CC(C(=O)O[C@H]2CN3CCC2CC3)(c2ccccc2)C1 [Compound 18A, (R)-Quinuclidin-3-yl 1-(4-(4-(((R)-2-hydroxy-2-(8-hydroxy-2-oxo-1,2-dihydroquinolin-5-yl)ethyl)amino)butoxy)benzoyl)-3-phenylazetidine-3-carboxylate] | < 1 nM | 1 to 10 nM
18 | O=C(NCCCCNC[C@H](O)c1ccc(O)c2[nH]c(=O)ccc12)c1ccc(C(=O)N2CCC(C(=O)O[C@H]3CN4CCC3CC4)(c3ccccc3)CC2)cc1 [Compound 19, (R)-Quinuclidin-3-yl 1-(4-((4-(((R)-2-hydroxy-2-(8-hydroxy-2-oxo-1,2-dihydroquinolin-5-yl)ethyl)amino)butyl)carbamoyl)benzoyl)-4-phenylpiperidine-4-carboxylate] | < 1 nM | 1 to 10 nM
